For 50 compounds, ΔTm results are on record in ChEMBL document CHEMBL5308504, “Tm Shift (DSF) assay results for EUbOPEN Chemogenomics Library” (2023).

The target of one test is T1, Peregrin (Homo sapiens) (UniProt P55201).
T1 sequence (whole entry): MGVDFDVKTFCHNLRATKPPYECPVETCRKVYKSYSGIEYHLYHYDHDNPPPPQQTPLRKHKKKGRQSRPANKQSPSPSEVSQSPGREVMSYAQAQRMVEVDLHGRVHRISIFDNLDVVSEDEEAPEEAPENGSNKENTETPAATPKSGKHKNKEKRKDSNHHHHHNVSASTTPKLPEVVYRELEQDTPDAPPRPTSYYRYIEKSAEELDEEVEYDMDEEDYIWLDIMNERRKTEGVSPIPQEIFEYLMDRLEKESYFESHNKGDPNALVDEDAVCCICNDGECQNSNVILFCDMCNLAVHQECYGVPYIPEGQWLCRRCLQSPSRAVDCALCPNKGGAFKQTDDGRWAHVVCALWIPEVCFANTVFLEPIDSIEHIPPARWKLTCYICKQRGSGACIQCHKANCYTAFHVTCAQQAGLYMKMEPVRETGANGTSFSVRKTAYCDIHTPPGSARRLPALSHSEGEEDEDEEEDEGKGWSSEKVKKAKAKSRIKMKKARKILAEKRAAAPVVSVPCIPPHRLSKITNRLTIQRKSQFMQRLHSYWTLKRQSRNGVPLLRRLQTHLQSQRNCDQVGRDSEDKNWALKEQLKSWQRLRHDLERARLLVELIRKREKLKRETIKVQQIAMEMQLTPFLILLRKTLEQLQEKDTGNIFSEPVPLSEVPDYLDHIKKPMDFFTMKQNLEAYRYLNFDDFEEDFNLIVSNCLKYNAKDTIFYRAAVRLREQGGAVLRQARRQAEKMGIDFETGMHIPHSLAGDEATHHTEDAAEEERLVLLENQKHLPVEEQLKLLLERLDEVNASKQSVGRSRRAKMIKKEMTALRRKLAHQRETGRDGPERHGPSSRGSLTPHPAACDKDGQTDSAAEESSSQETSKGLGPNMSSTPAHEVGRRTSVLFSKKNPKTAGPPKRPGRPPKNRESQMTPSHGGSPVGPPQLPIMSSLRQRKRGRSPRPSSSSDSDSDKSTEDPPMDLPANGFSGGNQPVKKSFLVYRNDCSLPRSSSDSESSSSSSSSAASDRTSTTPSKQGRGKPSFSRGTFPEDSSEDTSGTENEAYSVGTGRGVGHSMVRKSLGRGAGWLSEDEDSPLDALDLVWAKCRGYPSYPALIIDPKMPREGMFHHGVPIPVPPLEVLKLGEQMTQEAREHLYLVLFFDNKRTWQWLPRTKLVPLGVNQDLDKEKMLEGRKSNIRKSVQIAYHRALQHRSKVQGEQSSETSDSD
To be noted: Compound concentration 20.0 uM, Protein concentration 2.0 uM, Result type QC Liability.

The target in test [1] is Fibroblast growth factor receptor 3 (Homo sapiens) (UniProt P22607). To be noted: Compound concentration 20.0 uM, Protein concentration 2.0 uM, Result type QC Liability.
Description: Thermal Shift Assay. Domain: start/stop: P449-E759

What is called ΔTm is the change in melting temperature against a reference sample.

Molecules are shown by their SMILES. Values joined by “and” are separate entries in the source; they are usually repeats but may differ in a detail not shown here. Equal entries are not always repeated.

Fibroblast growth factor receptor 3 (Homo sapiens), sequence (P22607 23-806 limits assumed): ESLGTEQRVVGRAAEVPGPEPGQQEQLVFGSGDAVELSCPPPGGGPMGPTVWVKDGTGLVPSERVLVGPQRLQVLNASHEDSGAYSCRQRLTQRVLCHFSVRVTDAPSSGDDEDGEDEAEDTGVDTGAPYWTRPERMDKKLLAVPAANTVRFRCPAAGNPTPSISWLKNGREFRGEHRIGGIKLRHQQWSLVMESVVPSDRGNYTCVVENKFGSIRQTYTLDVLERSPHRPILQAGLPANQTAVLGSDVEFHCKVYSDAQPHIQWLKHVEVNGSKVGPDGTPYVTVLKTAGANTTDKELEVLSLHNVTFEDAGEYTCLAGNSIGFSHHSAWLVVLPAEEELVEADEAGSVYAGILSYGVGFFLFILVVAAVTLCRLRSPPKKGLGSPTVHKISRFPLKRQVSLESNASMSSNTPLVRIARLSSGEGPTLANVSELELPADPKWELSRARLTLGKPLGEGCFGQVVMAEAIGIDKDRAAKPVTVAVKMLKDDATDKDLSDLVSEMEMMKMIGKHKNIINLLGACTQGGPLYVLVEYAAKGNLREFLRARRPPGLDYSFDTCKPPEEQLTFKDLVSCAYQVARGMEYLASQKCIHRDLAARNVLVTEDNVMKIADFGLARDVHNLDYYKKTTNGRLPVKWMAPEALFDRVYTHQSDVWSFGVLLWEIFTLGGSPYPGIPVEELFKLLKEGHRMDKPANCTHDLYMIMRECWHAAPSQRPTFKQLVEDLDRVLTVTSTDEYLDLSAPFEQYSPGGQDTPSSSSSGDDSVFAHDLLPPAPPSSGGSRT

Consider `CC(=O)c1c(C)c2cnc(Nc3ccc(N4CCNCC4)cn3)nc2n(C2CCCC2)c1=O`, for which the ΔTm on Peregrin (Homo sapiens) was -1.97 °C and -1.31 °C; in test [1], 0.56 °C and 0.64 °C.

For `CCc1cnn2c(NCc3ccc[n+]([O-])c3)cc(N3CCCCC3CCO)nc12` (centres undefined), the ΔTm on Peregrin (Homo sapiens) was -1.7 °C; in test [1], 1.49 °C.

Regarding `COc1cc(Cl)c(C(=O)N[C@@H](CN[C@H]2CC[C@@H](N)CC2)Cc2ccc(C#N)cc2)cc1-c1ccc(CN[C@H](C)c2ccc(C)cc2)o1`, the ΔTm is -2.44 °C on Peregrin (Homo sapiens) and 1.14 °C in test [1].

In the case of `c1ccc(C2CCN(c3cnc4c(N5CCOCC5)nccn34)CC2)cc1`, the ΔTm was -0.86 °C at Peregrin (Homo sapiens) and 0.73 °C in test [1].

Consider `N#Cc1c(SCc2csc(-c3ccc(Cl)cc3)n2)nc(N2CCCC2)c(C#N)c1-c1ccc(OCCO)cc1`, for which the ΔTm on Peregrin (Homo sapiens) was -3.79 °C; in test [1] it was 1.06 °C.

For the compound `COC1(C#Cc2ccc(Cl)c(-c3ncc4c(n3)-c3sc(NC(C)=O)nc3CC4)c2)CCN(C)CC1`, the ΔTm at Peregrin (Homo sapiens) is -1.7 °C; in test [1], 0.77 °C.

Consider `CN1CC(=O)N(C)c2cnc(Nc3ccc(NC(=O)Nc4cccc(C(=O)O)c4)cc3)nc21`, for which the ΔTm on Peregrin (Homo sapiens) was -0.81 °C; in test [1], 1.19 °C.

In the case of `CNc1nc(-c2ccc3c(N)n[nH]c3c2)cc(N2C[C@@H](C(=O)NC3CCCCC3)CC[C@H]2C)n1`, the ΔTm on Peregrin (Homo sapiens) was -2.05 °C; in test [1] it was 2.13 °C.

For the compound `CCc1nc(C2CCC2)n2nc(-c3ccccc3)[nH]c(=O)c12`, the ΔTm is -2.47 °C on Peregrin (Homo sapiens) and 0.69 °C in test [1].

For the compound `CN(C)C(=O)c1cc2cnc(Nc3ccc(N4CCN(CCCCNC(=O)COc5cccc6c5C(=O)N(C5CCC(=O)NC5=O)C6=O)CC4)cn3)nc2n1C1CCCC1` (centres undefined), the results for the ΔTm (at Peregrin (Homo sapiens); in test [1]) were -1.94 °C and 0.68 °C, respectively.

As for `CC(C)(O)CNC(=O)N1C(=O)N(c2cccc(C(F)(F)F)c2)C2=C(C(=O)CC2)[C@@H]1c1ccc(C#N)cc1`, the ΔTm at Peregrin (Homo sapiens) is -2.73 °C; in test [1] it was 0.55 °C.

As for `COc1cc(-c2cc3ncccc3c(O[C@@H](C)[C@H]3CNC(=O)C3)n2)cc(OC)c1OC`, the figures for the ΔTm (on Peregrin (Homo sapiens); in test [1]) were -2.76 °C and 0.6 °C, respectively.

In the case of `CN(C)C/C=C/C(=O)Nc1cc2c(Nc3ccc(F)c(Cl)c3)ncnc2cc1OC[C@@H]1CCCO1`, the figures for the ΔTm (on Peregrin (Homo sapiens); in test [1]) were -0.41 °C and 1.49 °C, respectively.

Take `O=C1Nc2ccc(I)cc2/C1=C/c1cc(Br)c(O)c(Br)c1`: the figures for the ΔTm (on Peregrin (Homo sapiens); in test [1]) were -0.58 °C and 0.51 °C, respectively.

Consider `COc1cc(F)ccc1-c1ncnc(Nc2cccc(C[S@](C)(=N)=O)c2)n1`, for which the figures for the ΔTm (on Peregrin (Homo sapiens); in test [1]) were -1.17 °C and 1.31 °C, respectively.

For the compound `CCOC(=O)CS(=O)(=O)c1ccc([C@@H](CO)NC(=O)c2cc3c(Cl)c(Cl)c(C)cc3n2C)cc1`, the ΔTm was -8.76 °C at Peregrin (Homo sapiens) and 2.82 °C in test [1].

As for `CCN(CC)C/C=C/C(=O)Nc1cc2c(Nc3ccc(F)c(Cl)c3)ncnc2cc1OCC1CC1`, the ΔTm at Peregrin (Homo sapiens) is -0.42 °C; in test [1], 1.12 °C.

With `Nc1nc(-c2nn(Cc3ccccc3F)c3ncccc23)ncc1C1CC1`, the figures for the ΔTm (on Peregrin (Homo sapiens); in test [1]) were -2.28 °C and 1.14 °C, respectively.

For the compound `Clc1cccc(Nc2nccc(NCCCN3CCOCC3)n2)c1`, the ΔTm on Peregrin (Homo sapiens) was -1.42 °C; in test [1], 1.15 °C.

Consider `O=C(O)Cc1ccc(CCNS(=O)(=O)c2ccc(Cl)cc2)cc1`, for which the values for the ΔTm (at Peregrin (Homo sapiens); in test [1]) were -2.91 °C and 0.43 °C, respectively.

Regarding `CO[C@H](C)CN1CC[C@]2(C)c3cccc(O)c3C[C@H]1C2(C)C`, the ΔTm at Peregrin (Homo sapiens) is -1.37 °C; in test [1] it was 0.41 °C.

Take `C[C@@H]1OCC2(CCN(c3cnc(Sc4ccnc(N)c4Cl)c(N)n3)CC2)[C@@H]1N`: the ΔTm was -1.53 °C on Peregrin (Homo sapiens) and 0.48 °C in test [1].

With `COc1ccc(Br)cc1S(=O)(=O)NC(=O)/C=C/c1cc(Cl)ccc1Cc1ccc2ccccc2c1`, the ΔTm on Peregrin (Homo sapiens) is -10.6 °C; in test [1], 0.7 °C.

In the case of `CC(C)(C)NC(=O)c1cncn1C1CCN(c2ccc(-c3nnc(C(F)(F)F)o3)cn2)CC1`, the figures for the ΔTm (on Peregrin (Homo sapiens); in test [1]) were -2.22 °C and 0.91 °C, respectively.

Regarding `Cc1cc(NC(=O)c2cccc(NC(=O)/C=C/CN(C)C)c2)ccc1Nc1nccc(-c2cccnc2)n1`, the ΔTm on Peregrin (Homo sapiens) was -1.22 °C; in test [1] it was 1.04 °C.

In the case of `Cc1cc(CN)cc(C)c1-c1ncn(C)c1-c1cncn1C`, the values for the ΔTm (at Peregrin (Homo sapiens); in test [1]) were -1.81 °C and 0.44 °C, respectively.

For `CC(=O)Nc1nc(CN2CCC[C@H](Cc3cc(C)nc(C)c3)C2)cs1`, the figures for the ΔTm (on Peregrin (Homo sapiens); in test [1]) were -1.25 °C and 0.78 °C, respectively.

Consider `CCN1CCN(Cc2ccc(C(=O)Nc3ccc(C)c(Oc4ccc5c(c4)CC(=O)N5)c3)cc2C(F)(F)F)CC1`, for which the figures for the ΔTm (at Peregrin (Homo sapiens); in test [1]) were -1.47 °C and 3.22 °C, respectively.

Turning to `Cc1nccn1-c1ccc(Sc2cccc(C3(C(N)=O)CCOCC3)c2)cc1`, the ΔTm on Peregrin (Homo sapiens) was -1.72 °C; in test [1] it was 0.44 °C.

Take `CC(C)(C)c1cc(NC(=O)c2csc(Nc3ccccn3)n2)no1`: the ΔTm at Peregrin (Homo sapiens) was -2.33 °C; in test [1], 0.72 °C.

Take `COCc1nc2cnc3cc(-c4c(C)noc4C)c(OC[C@H]4CCNC4)cc3c2n1[C@H](C)c1ccccc1`: the shift in melting temperature (ΔTm) at Peregrin (Homo sapiens) is -1.65 °C; in test [1] it was 0.6 °C.

`CCC(F)(F)c1cc(N2CCC(S(C)(=O)=O)CC2)nc2sc(C(N)=O)c(N)c12`: the ΔTm at Peregrin (Homo sapiens) was -2.52 °C and -1.37 °C and -0.65 °C; in test [1] it was 0.83 °C and 0.75 °C and 1.17 °C.

In the case of `COCCN1CCN(CCn2ccc(Nc3ncc4c(n3)-c3c(nn(C)c3-c3ccccc3)C[C@H]4C)n2)CC1`, the ΔTm was -0.48 °C at Peregrin (Homo sapiens) and 3.58 °C in test [1].

For `O=C(O)C[C@H]1CCn2c1c(Sc1ccc(Cl)cc1)c1ccc(F)cc12`, the ΔTm on Peregrin (Homo sapiens) is -3.8 °C; in test [1], -0.05 °C.

`CC(=O)c1c(C)c2cnc(Nc3ccc(N4CCN(CCCCNC(=O)COc5cccc6c5C(=O)N(C5CCC(=O)NC5=O)C6=O)CC4)cn3)nc2n(C2CCCC2)c1=O` (centres undefined): the results for the ΔTm (on Peregrin (Homo sapiens); in test [1]) were -1.22 °C and 0.48 °C, respectively.

Turning to `O=C1CCCN1CCNc1nc(Nc2ccc(Cl)c(Cl)c2)ncc1C(F)(F)F`, the ΔTm on Peregrin (Homo sapiens) is -1.78 °C; in test [1] it was 4.63 °C.

With `CC1(C)CCN(C(=O)C2CN(c3c4c(nc5ccnn35)CCNCC4)C2)C1`, the ΔTm on Peregrin (Homo sapiens) was -2.26 °C; in test [1] it was 0.72 °C.

`Nc1ncnc2c1c(I)cn2[C@@H]1O[C@H](CO)[C@@H](O)[C@H]1O`: the ΔTm on Peregrin (Homo sapiens) is -1.79 °C; in test [1] it was 3.13 °C.

On to `CC(C)(O)c1coc(S(=O)(=O)NC(=O)Nc2c3c(cc4c2CCC4)CCC3)c1`, for which the ΔTm was -2.87 °C at Peregrin (Homo sapiens) and 0.84 °C in test [1].

Consider `COCc1c(-c2cc3cc(C)cc(OC)c3s2)c2c(N)ncnn2c1CN[C@@H]1CCNC1=O`, for which the ΔTm on Peregrin (Homo sapiens) is -2.51 °C; in test [1] it was 6.99 °C.

In the case of `C[C@@H]1Cc2c([nH]c3ccccc23)[C@@H](c2c(F)cc(/C=C/C(=O)O)cc2F)N1CC(C)(C)F`, the thermal shift (ΔTm) at Peregrin (Homo sapiens) is -4.53 °C; in test [1], 0.58 °C.

Turning to `CC(C)C(=O)N[C@@H]1CCN(C(=O)Nc2nc3c(s2)-c2nc(-c4ccccc4Cl)ncc2CC3)C1`, the ΔTm is -1.39 °C on Peregrin (Homo sapiens) and 3.87 °C in test [1].

For the compound `CNC(=O)c1cc(C(=O)N[C@H]2[C@@H]3COC[C@@H]32)cc2c1O[C@@H](CF)[C@@H]2c1ccccc1`, the values for the ΔTm (at Peregrin (Homo sapiens); in test [1]) were -1.16 °C and 0.48 °C, respectively.

For the compound `Cc1cccc(-c2nn3c(c2-c2ccnc4ccc(C(N)=O)cc24)CCC3)n1`, the ΔTm at Peregrin (Homo sapiens) was -0.93 °C; in test [1], 1.13 °C.

On to `COc1ccc(C(=O)N[C@H](C)c2cccc(C(=O)Nc3nc4c(s3)CN(C)CC4)c2)cc1C`, for which the ΔTm at Peregrin (Homo sapiens) was -0.23 °C; in test [1], 0.97 °C.

For the compound `COc1ccc(-c2c(-c3ccccc3)oc3ncnc(O[C@H](C)CCCCC(=O)O)c23)cc1`, the results for the ΔTm (at Peregrin (Homo sapiens); in test [1]) were -6.64 °C and -0.48 °C, respectively.

Consider `Cc1ccc(C(=O)Nc2cc(N3CCN(C)CC3)cc(C(F)(F)F)c2)cc1-n1cc(-c2cnn(C)c2C)nn1`, for which the results for the ΔTm (at Peregrin (Homo sapiens); in test [1]) were -0.61 °C and 3.8 °C, respectively.

As for `CN1CCN(C(=O)c2ccc(N(C)c3ncc(C(F)(F)F)c(N[C@@H]4CCC[C@@H]4C(N)=O)n3)cc2)CC1`, the ΔTm on Peregrin (Homo sapiens) was -2.51 °C; in test [1], 0.46 °C.

Consider `Cc1ncsc1-c1ccc(CNC(=O)[C@@H]2C[C@@H](O)CN2C(=O)[C@@H](NC(=O)C2(F)CC2)C(C)(C)C)c(OCCOc2ccc(CN3CCN(c4cc(-c5ccccc5O)nnc4N)CC3)cc2)c1`, for which the ΔTm at Peregrin (Homo sapiens) was 5.55 °C; in test [1], -0.75 °C.

On to `C/C=C1\C(=O)CC2C3CCC4=CC(=O)CC[C@]4(C)C3CC[C@]12C` (some centres undefined), for which, on Peregrin (Homo sapiens), the ΔTm is -1.36 °C.
